Reference: the Kinase Knowledgebase extract (Sharma et al. 2016)
Values after ≈ are worked out from the molar mass of the structure shown.

target: EGFR (UniProt P00533)
Sequence (P00533 whole entry, looked up): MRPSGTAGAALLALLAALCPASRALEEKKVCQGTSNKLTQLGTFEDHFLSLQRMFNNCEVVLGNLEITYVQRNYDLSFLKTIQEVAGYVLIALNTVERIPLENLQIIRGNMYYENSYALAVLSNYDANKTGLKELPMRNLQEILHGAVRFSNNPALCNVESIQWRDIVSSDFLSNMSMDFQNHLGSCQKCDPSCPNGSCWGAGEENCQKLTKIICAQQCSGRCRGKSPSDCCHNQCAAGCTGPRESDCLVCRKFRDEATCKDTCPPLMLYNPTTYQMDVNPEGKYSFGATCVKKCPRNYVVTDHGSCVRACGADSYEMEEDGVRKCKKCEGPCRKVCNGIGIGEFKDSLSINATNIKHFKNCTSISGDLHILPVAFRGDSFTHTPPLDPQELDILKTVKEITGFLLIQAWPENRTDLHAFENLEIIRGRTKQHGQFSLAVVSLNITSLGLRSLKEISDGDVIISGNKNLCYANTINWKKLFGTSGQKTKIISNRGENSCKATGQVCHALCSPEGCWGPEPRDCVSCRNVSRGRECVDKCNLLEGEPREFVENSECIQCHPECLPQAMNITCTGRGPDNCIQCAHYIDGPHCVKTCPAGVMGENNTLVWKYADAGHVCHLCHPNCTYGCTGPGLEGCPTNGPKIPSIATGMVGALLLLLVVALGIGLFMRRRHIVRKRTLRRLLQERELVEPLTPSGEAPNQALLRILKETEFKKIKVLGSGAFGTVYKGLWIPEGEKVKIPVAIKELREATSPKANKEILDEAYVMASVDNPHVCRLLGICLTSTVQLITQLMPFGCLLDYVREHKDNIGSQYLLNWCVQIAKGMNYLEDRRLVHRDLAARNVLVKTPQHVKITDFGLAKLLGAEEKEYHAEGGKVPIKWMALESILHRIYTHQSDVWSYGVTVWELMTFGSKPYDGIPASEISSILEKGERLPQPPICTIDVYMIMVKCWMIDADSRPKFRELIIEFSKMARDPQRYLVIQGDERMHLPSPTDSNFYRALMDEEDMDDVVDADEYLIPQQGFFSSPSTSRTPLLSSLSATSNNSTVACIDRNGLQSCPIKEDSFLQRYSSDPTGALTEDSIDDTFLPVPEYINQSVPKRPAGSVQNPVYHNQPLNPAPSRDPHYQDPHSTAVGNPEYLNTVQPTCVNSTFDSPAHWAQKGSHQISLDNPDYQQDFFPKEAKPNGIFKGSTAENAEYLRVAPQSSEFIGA

| SMILES | IC50 [µg/mL] |
| --- | --- |
| COc1cc(Nc2ncnc(-n3c(N[C@@H](C)c4ccccc4)nc4ccccc43)n2)cc(OC)c1OC | 2.4 to 3.5 (≈ 4.82 to 7.03 µM) |
| COc1cc(Nc2ncnc(N3CCN(c4ncccn4)CC3)n2)cc(OC)c1OC | > 4.5 |
| COc1cc(Nc2ncnc(Nc3ccc(OCC(=O)Nc4ccccc4)cc3)n2)cc(OC)c1OC | 0.4 to 2.4 (≈ 0.796 to 4.78 µM) |
| c1ccc(Cn2ncc3cc(Nc4ncnc(NCC5CCCCC5)n4)ccc32)cc1 | > 4.5 |
| COc1cc(Nc2ncnc(-c3cccnc3Cl)n2)cc(OC)c1OC | > 4.5 |
| COC(=O)c1ccc(-c2cc(Nc3ncnc(Nc4cc(F)cc(F)c4)n3)[nH]n2)cc1 | > 4.5 |
| COc1cc(Nc2ncnc(-c3cccnc3NC3CCCc4ccccc43)n2)cc(OC)c1OC (centres undefined) | 3.5 to 4.5 (≈ 7.22 to 9.29 µM) |
| COc1cc(Nc2ncnc(-n3c(NC(C)c4ccc(F)cc4)nc4ccccc43)n2)cc(OC)c1OC (centres undefined) | > 4.5 |
| c1ccc(Cn2ncc3cc(Nc4ncnc(Nc5ncccn5)n4)ccc32)cc1 | 0.4 to 2.4 (≈ 1.01 to 6.07 µM) |
| COc1cc(Nc2ncnc(Nc3ncnc4[nH]cnc34)n2)cc(OC)c1OC | > 4.5 |
| COc1cccc(Nc2ncnc(Nc3ccc(OCc4ccccc4)cc3)n2)c1 | 0.4 to 2.4 (≈ 1 to 6.01 µM) |
| Brc1ccc(Nc2ncnc(-n3cccc3)n2)cc1 | > 4.5 |
| COC(=O)Cc1cccc(Nc2ncnc(-n3c(NCc4ccc(OC)cc4)nc4ccccc43)n2)c1 | > 4.5 |
| COc1cc(Nc2ncnc(Nc3cccc(O)c3)n2)cc(OC)c1OC | < 0.4 |
| COc1cc(Nc2ncnc(-n3c(Nc4ccc(OC(F)(F)F)cc4)nc4ccccc43)n2)cc(OC)c1OC | 2.4 to 3.5 (≈ 4.34 to 6.32 µM) |
| COc1ccc(N(C)c2ncnc(Nc3cc(OC)c(OC)c(OC)c3)n2)cc1 | 0.4 to 2.4 (≈ 1.01 to 6.04 µM) |
| NC(=O)c1cccc(Nc2ncnc(Nc3cc(-c4ccco4)n[nH]3)n2)c1 | < 0.4 |
| NC(=O)Cc1cccc(Nc2ncnc(-n3c(N)nc4ccccc43)n2)c1 | > 4.5 |
| CC(C)(C)c1ccc(Nc2ncnc(-n3c(N)nc4ccccc43)n2)cc1 | > 4.5 |
| c1ccc(CNc2ncnc(Nc3cc(-c4ccco4)n[nH]3)n2)nc1 | 0.4 to 2.4 (≈ 1.2 to 7.18 µM) |
| COc1cc(Nc2ncnc(Nc3[nH]ncc3-c3ccccc3)n2)cc(OC)c1OC | > 4.5 |
| O=C(O)Cc1cccc(Nc2ncnc(-n3c(NCc4ccccn4)nc4ccccc43)n2)c1 | > 4.5 |
| COc1ccc(Nc2ncnc(NCC(O)c3ccccc3)n2)cc1OC (centres undefined) | 3.5 to 4.5 (≈ 9.53 to 12.2 µM) |
| COc1cc(Nc2ncnc(-c3ccsc3)n2)cc(OC)c1OC | > 4.5 |
| COc1cc(Nc2ncnc(-n3ccnc3Cl)n2)cc(OC)c1OC | 0.4 to 2.4 (≈ 1.1 to 6.62 µM) |
| COc1cc(Nc2ncnc(-c3ccncc3)n2)cc(OC)c1OC | > 4.5 |
| COc1cc(Nc2ncnc(Nc3cc(-c4ccc(Cl)cc4)n[nH]3)n2)cc(OC)c1OC | 2.4 to 3.5 (≈ 5.29 to 7.71 µM) |

| SMILES | IC50 [µg/mL] |
| --- | --- |
| COCCCNc1ncnc(N2CCCc3cc(C)ccc32)n1 | 3.5 to 4.5 (≈ 11.2 to 14.4 µM) |
| COc1cc(Nc2ncnc(N(CCC(C)C)c3ccc(Cl)cc3)n2)cc(OC)c1OC | < 0.4 |
| Cc1cc(Br)ccc1Nc1ncnc(-n2cccc2)n1 | > 4.5 |
| Nc1ncnc(Nc2ccc(C3CCCCC3)cc2)n1 | > 4.5 |
| CN(c1cccc(Cl)c1)c1ncnc(N(C)c2cccc(Cl)c2)n1 | 0.4 to 2.4 (≈ 1.11 to 6.66 µM) |
| COc1cccc(Nc2ncnc(-c3cccs3)n2)n1 | > 4.5 |
| COc1cc(Nc2ncnc(-n3c(Nc4cccc5cccnc45)nc4ccccc43)n2)cc(OC)c1OC | > 4.5 |
| c1ccc(Nc2ncccc2-c2ncnc(Nc3ccc4[nH]ncc4c3)n2)cc1 | 3.5 to 4.5 (≈ 9.2 to 11.8 µM) |
| COc1cc(Nc2ncnc(Nc3ccc(C(N)=O)cc3)n2)cc(OC)c1OC | > 4.5 |
| COc1cc(Nc2ncnc(-n3c(NC(=O)c4ccccc4)nc4ccccc43)n2)cc(OC)c1OC | > 4.5 |
| COc1cc(Nc2ncnc(-c3cccnc3Nc3cccc4c3CCCC4)n2)cc(OC)c1OC | > 4.5 |
| OCc1cccc(Nc2ncnc(-c3cccnc3Nc3ccccc3)n2)c1 | 0.4 to 2.4 (≈ 1.08 to 6.48 µM) |
| COc1cc(Nc2ncnc(-n3c(NCc4nc5ccccc5[nH]4)nc4ccccc43)n2)cc(OC)c1OC | > 4.5 |
| COc1cc(Nc2ncnc(-n3c(NCc4cccnc4)nc4ccccc43)n2)cc(OC)c1OC | > 4.5 |
| COc1cc(Nc2ncnc(Nc3ccccc3F)n2)cc(OC)c1OC | < 0.4 |
| CN(c1cccc(Cl)c1)c1ncnc(Nc2cccc(CC(=O)O)c2)n1 | < 0.4 |
| COc1cc(Nc2ncnc(Nc3cccc4ccccc34)n2)cc(OCCN2CCOCC2)c1OC | < 0.4 |
| C=CCNc1cc(-c2ncnc(Nc3cc(OC)c(OC)c(OC)c3)n2)ccn1 | > 4.5 |
| C=CCNc1nc2ccccc2n1-c1ncnc(Nc2cc(OC)c(OC)c(OC)c2)n1 | > 4.5 |
| Nc1nc2ccccc2n1-c1ncnc(Nc2ccc(N3CCOCC3)cc2)n1 | 3.5 to 4.5 (≈ 9.01 to 11.6 µM) |
| Clc1cccc(Nc2ncnc(-n3cccc3)n2)c1 | > 4.5 |
| O=C(O)/C=C/c1ccc(Nc2ncnc(Nc3cc(-c4ccco4)[nH]n3)n2)cc1 | < 0.4 |
| COc1ccc(Nc2ncnc(N(C)c3ccc(Cl)c(Cl)c3)n2)cc1OC | < 0.4 |
| NC(=O)c1cccc(Nc2ncnc(-c3ccccc3)n2)c1 | > 4.5 |
| COc1ccc(CNc2nc3ccccc3n2-c2ncnc(Nc3cccc(C(=O)O)c3)n2)cc1 | > 4.5 |
| COc1cc(Nc2ncnc(-n3c(Nc4cccc(C(N)=O)c4)nc4ccccc43)n2)cc(OC)c1OC | > 4.5 |
| Cc1ccc2c(c1)CCCN2c1ncnc(NCc2cccnc2)n1 | > 4.5 |
